This note sets out measurements from ChEMBL document CHEMBL1201862, “PubChem BioAssay data set” (2004).

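Five compound concentrations were applied to cells in 96-well plates for 48 hours; endpoints were derived by simple linear interpolation of the resulting dose-response curve. GI50: concentration for 50% inhibition of growth.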 The source made the active and inactive calls. Rule as the data show it: active = GI50 up to about 1.1 µM and inactive = higher.

Common to all, as to assay: NCI anticancer screen, dose series, 48 h
For experiment [1], the system named is A498.
Experiment [2] relates to BT-549.
Experiment [3] deals with EKVX.
Experiment [4] deals with IGROV-1.
The test system of experiment [5] is KM12.
The test system of experiment [6] is MCF7.
Experiment [7] deals with MOLT-4.
The subject of experiment [8] is NCI-H23.
Experiment [9] relates to OVCAR-8.
The subject of experiment [10] is RPMI-8226.
The test system of experiment [11] is SF-295.
In experiment [12] the test system is SK-MEL-2.
Experiment [13] deals with SN12C.
The test system of experiment [14] is SR.
The test system of experiment [15] is UACC-62.
Experiment [16] deals with HCC 2998.
Experiment [17] deals with NCI-H460.
Experiment [18] deals with RXF 393.
The subject of experiment [19] is TK-10.

Regarding `C=CCN(C(=O)OC(C)(C)C)[C@H](C)C(=O)N[C@@H](C)C(=O)OC`, the GI50 in experiment [1], in experiment [2], in experiment [3], in experiment [4], in [5] and in [6] was > 100 µM (inactive) each time. Moreover, the GI50 in [7], in experiment [8], in experiment [9], in [10], in [11] and in [12] was > 100 µM (inactive) throughout. The GI50 in experiment [13], in experiment [14] and in [15] was > 100 µM (inactive) in each case.

Turning to `O=C1Oc2cc(O)cc(/C=C/c3ccc(O)cc3)c2[C@@]12c1c(O)cc(O)cc1OC2c1cccc(O)c1` (some centres undefined), the GI50 in experiment [2] was 49.8 µM (inactive); in experiment [3], 49.3 µM (inactive); in experiment [16], 19.5 µM (inactive); in experiment [4] it was 0.61 µM (active); in [5] it was 25.6 µM (inactive); in experiment [6], 39.1 µM (inactive). Besides, the GI50 is 42.8 µM (inactive) in experiment [7]; 24.7 µM (inactive) in [8]; 20.9 µM (inactive) in experiment [17]; 41.2 µM (inactive) in experiment [9]; 13.4 µM (inactive) in [10]; 34.6 µM (inactive) in [18]. Besides, the GI50 in experiment [11] was 32.2 µM (inactive); in experiment [12], 24.2 µM (inactive); in [13] it was 25.9 µM (inactive); in [14] it was 42.4 µM (inactive); in experiment [19], 39.1 µM (inactive); in [15] it was 25.3 µM (inactive).

In the case of `Cn1c(NNc2ccccc2)cc(=O)[nH]c1=O`, the GI50 in experiment [2] was > 100 µM (inactive); in experiment [3], > 100 µM (inactive); in experiment [16], 27.3 µM (inactive); in experiment [4] it was 48.2 µM (inactive); in experiment [5], 15.2 µM (inactive); in experiment [6], 33.8 µM (inactive). Also, the GI50 is 39.3 µM (inactive) in experiment [7]; > 100 µM (inactive) in experiment [8]; 51.9 µM (inactive) in [17]; 29.8 µM (inactive) in experiment [9]; 35.3 µM (inactive) in [10]; 61.8 µM (inactive) in [18]. The GI50 is 21.8 µM (inactive) in [11]; 3.63 µM (inactive) in experiment [12]; > 100 µM (inactive) in [13]; 22.6 µM (inactive) in experiment [14]; > 100 µM (inactive) in experiment [19]; 36.1 µM (inactive) in experiment [15].

Take `CN1CCCN(C)CCCN(C)CCCN(C)CCC1`: the GI50 in [2], in experiment [3], in experiment [16], in experiment [4], in experiment [5] and in experiment [6] was > 100 µM (inactive) in each case. Moreover, the GI50 in [7], in [8], in [9], in experiment [10], in experiment [18] and in [11] was > 100 µM (inactive) throughout. Also, the GI50 in experiment [12], in [14], in experiment [19] and in experiment [15] was > 100 µM (inactive) each time.

With `CC(C)OCC1CC(CC(=O)Nc2nncs2)C(=O)O1` (centres undefined), the GI50 in [2], in experiment [3], in [16], in experiment [4], in experiment [5] and in experiment [6] was > 100 µM (inactive) throughout. The GI50 in [7], in experiment [8], in experiment [17], in [9], in experiment [10] and in experiment [11] was > 100 µM (inactive) throughout. Also, the GI50 in experiment [12], in experiment [13], in [14], in experiment [19] and in experiment [15] was > 100 µM (inactive) in each case.

As for `O=Nn1c2ccccc2c2ccccc21`, the GI50 is 23.8 µM (inactive) in [1]; 73.1 µM (inactive) in experiment [2]; 22.4 µM (inactive) in experiment [3]; 17.1 µM (inactive) in experiment [16]; 85.3 µM (inactive) in [4]; 34.3 µM (inactive) in experiment [5]. Also, the GI50 is 45 µM (inactive) in experiment [6]; 55.1 µM (inactive) in experiment [7]; 58.2 µM (inactive) in experiment [8]; 9.86 µM (inactive) in [17]; > 100 µM (inactive) in experiment [9]; 70.1 µM (inactive) in experiment [10]. The GI50 in [18] is 37.7 µM (inactive); in experiment [11] it was 42.9 µM (inactive); in experiment [12], 61.7 µM (inactive); in experiment [13], > 100 µM (inactive); in experiment [19], 70.5 µM (inactive); in [15], 45.7 µM (inactive).

`CCOC(=O)c1c(-c2ccc(OC)cc2)c(C#N)c(=S)n(C2OC(CO)C(O)C(O)C2O)c1-c1ccccc1` (centres undefined): the GI50 in experiment [2] is 37.4 µM (inactive); in experiment [16], 39.6 µM (inactive); in experiment [4], 59.6 µM (inactive); in experiment [5], 51.2 µM (inactive); in [6], 39.4 µM (inactive); in experiment [7], 30.7 µM (inactive). In addition, the GI50 in [8] is 31.8 µM (inactive); in experiment [17] it was 42.7 µM (inactive); in experiment [10] it was 46.9 µM (inactive); in experiment [18], 26.2 µM (inactive); in [11], 44.9 µM (inactive); in experiment [12], 31.3 µM (inactive). Also, the GI50 in experiment [13] is 42.7 µM (inactive); in experiment [14], 54.7 µM (inactive); in experiment [19], 55.6 µM (inactive); in [15], 28.2 µM (inactive).

With `CC(C)=CCc1cc2c(cc1O)OC[C@H]1c3cc4c(cc3O[C@@H]21)OCO4`, the GI50 was 23.4 µM (inactive) in experiment [2]; 22.2 µM (inactive) in [3]; > 10 µM (inactive) in [16]; > 100 µM (inactive) in experiment [4]; 39.6 µM (inactive) in [5]; 25.3 µM (inactive) in experiment [6]. The GI50 is 22.1 µM (inactive) in [7]; 33.2 µM (inactive) in [8]; 21.2 µM (inactive) in experiment [17]; > 100 µM (inactive) in [9]; 21.4 µM (inactive) in experiment [18]; > 100 µM (inactive) in [11]. Moreover, the GI50 in experiment [13] is > 10 µM (inactive); in [14], 33.6 µM (inactive); in experiment [19] it was 39.8 µM (inactive); in [15], > 100 µM (inactive).
